Experimental data reported in patent US4017639A, “2-Hydroxy-3-nitro-1,4-naphthoquinones for the prophylaxis of certain allergies” (Beecham Group Limited, priority 1974, dated 1977).

Test system: PCA response
Experiment: rat Passive Cutaneous Anaphylaxis Test (PCA test)
Format: in vivo, rat (male Wistar)
Conditions: sc, subcutaneous, as sodium salt
Protocol: All of the compounds of the formula (I) prepared in the preceding examples were tested in the rat Passive Cutaneous Anaphylaxis Test (PCA test) described below. They were administered as their sodium salts either in pH 7.2 phosphate buffer (for soluble salts) or as a suspension in 1% methyl cellulose (for insoluble salts).
Male Wistar rats of 250-300 g were injected intraperitoneally with 0.5 ml. of Bordatella pertussis vaccine (containing 4 × 10^10 dead organism per ml) and subcutaneously with 0.5 ml. of an emulsion of 100 mg of ovalbumin in 2 ml. of saline and 3 ml. of incomplete Freunds' adjuvant. Rats were bled by cardiac puncture on day 18, the blood was pooled and separated and serum stored at -20° and thawed only once before use.
0.1 ml. of each of six twofold serial dilutions of the serum in 0.9% saline were injected intradermally into separate sites on the shaved dorsal surface of 250-350 g. Male Wister rats. 72 hours later the animals were challenged by i.v. injection of 0.3 ml. of 1% ovalbumin mixed with 0.1 ml. of a 5% solution of pontamine sky blue dye both in isotonic saline buffered with pH 7.2 Sorenson buffer (P.B.S.). The rats were killed after 20 minutes and the diameter of the blue wheals at the antibody injection sites were measured. The starting dilution of the serum was adjusted so that there was no response, after challenge, at the site of injection of the highest dilution and a maximum response at the two or three lowest dilutions.
Amounts of the compounds were administered to rats by subcutaneous injection, into the nucal region, of a solution of the compound in P.B.S. or as a suspension in 1% methyl cellulose, each amount to a test group of six animals at a specified time prior to intravenous challenge with ovalbumin.
For those compounds having insoluble sodium salts, the salts were isolated by reaction of the free nitro compound with 2.5N sodium hydroxide and the filtered sodium salt washed free of alkali with water. The dried salts were then administered as a suspension in 1% methyl cellulose.

[1] = 10 min, time 10 mins before challenge
[2] = 0.5 h, time 30 mins before challenge

| SMILES | inhibition in vivo at 100 mg/kg [2] [%] | inhibition in vivo at 5 mg/kg [1] [%] | inhibition in vivo at 10 mg/kg [1] [%] | inhibition in vivo at 20 mg/kg [1] [%] | inhibition in vivo at 40 mg/kg [1] [%] | further results |
| --- | --- | --- | --- | --- | --- | --- |
| Cc1cccc2c1C(=O)C(O)=C([N+](=O)[O-])C2=O [Example 4, 3-Hydroxy-5-methyl-2-nitro-1,4-naphthoquinone] | – | – | – | – | – | inhibition in vivo at 0.5 mg/kg (10 min, dose 0.5 mg/Kg, time 10 mins before challenge): 6%; inhibition in vivo at 1 mg/kg [1]: 16%; inhibition in vivo at 2 mg/kg [1]: 16%; inhibition in vivo at 4 mg/kg [1]: 29% |
| O=C1C(O)=C([N+](=O)[O-])C(=O)c2ccccc21 [Example 1, 2-Hydroxy-3-nitro-1,4naphthoquinone] | 30 | – | – | – | – | inhibition in vivo at 25 mg/kg [2]: 16% |
| COc1cc2c(cc1OC)C(=O)C([N+](=O)[O-])=C(O)C2=O [Example 9, 6.7-Dimethoxy-2-hydroxy-3-nitro-1,4-naphthoquinone] | – | 28 | 39 | 75 | 84 | – |
| O=C1C(O)=C([N+](=O)[O-])C(=O)c2ccc(F)cc21 [Example 11, 6-Fluoro-3-hydroxy-2-nitro-1,4-naphthoquinone] | 16 | – | – | – | – | inhibition in vivo at 100 mg/kg [1]: 13% |
| COc1ccc2c(c1)C(=O)C(O)=C([N+](=O)[O-])C2=O [Example 5, 3-Hydroxy-6-methoxy-2-nitro-1,4-naphthoquinone] | – | 22 | 41 | 65 | 85 | – |
| Cc1cc2c(cc1C)C(=O)C([N+](=O)[O-])=C(O)C2=O [Example 7, 6,7-Dimethyl-2-hydroxy-3-nitro-1,4-naphthoquinone] | 27 | – | – | – | – | inhibition in vivo at 25 mg/kg [2]: 18% |
| CCOc1ccc2c(c1)C(=O)C(O)=C([N+](=O)[O-])C2=O [Example 8, 6-Ethoxy-3-hydroxy-2-nitro-1,4-naphthoquinone] | – | 25 | 28 | 54 | 79 | – |
| O=C1C([N+](=O)[O-])=C(O)C(=O)c2c(O)cccc21 [Example 3, 3,5-Dihydroxy-2-nitro-1,4-naphthoquinone] | – | – | – | – | – | inhibition in vivo at 25 mg/kg [2]: 14%; inhibition in vivo at 72 mg/kg (0.5 h, dose 72 mg/Kg, time 30 mins before challenge): 18% |
| Cc1ccc2c(c1)C(=O)C([N+](=O)[O-])=C(O)C2=O [Example 2, 2-Hydroxy-6-methyl-3-nitro-1,4-naphthoquinone] | 30 | – | – | – | – | inhibition in vivo at 25 mg/kg [2]: 33% |
| O=C1C(O)=C([N+](=O)[O-])C(=O)c2ccc(Br)cc21 [Example 10, 6-Bromo-3-hydroxy-2-nitro-1.4-naphthoquinone] | 13 | – | – | – | – | inhibition in vivo at 100 mg/kg [1]: 5% |
| Cc1ccc2c(c1)C(=O)C(O)=C([N+](=O)[O-])C2=O [Example 6, 3-Hydroxy-6-methyl-2-nitro-1,4-naphthoquinone] | – | 19 | 36 | 33 | 52 | – |
| O=C1C(O)=C([N+](=O)[O-])C(=O)c2cc3c(cc21)CCCC3 [Example 13, 2-Hydroxy-3-nitro-6,7-tetramethylene-1,4-naphtoquinone] | – | 72 | 80 | 87 | 90 | – |
| O=C1C(O)=C([N+](=O)[O-])C(=O)c2ccc(-c3ccccc3)cc21 [Example 14, 2-Hydroxy-3-nitro-7-phenyl-1,4-naphthoquinone] | – | – | 20 | 12 | 23 | inhibition in vivo at 80 mg/kg (10 min, dose 80 mg/Kg, time 10 mins before challenge): 23% |
| CCc1cc2c(cc1CC)C(=O)C([N+](=O)[O-])=C(O)C2=O [Example 12, 6,7-Diethyl-2-hydroxy-3-nitro-1,4-naphthoquinone] | – | – | – | – | – | inhibition in vivo at 1 mg/kg [1]: 11%; inhibition in vivo at 2 mg/kg [1]: 23%; inhibition in vivo at 4 mg/kg [1]: 26%; inhibition in vivo at 8 mg/kg (10 min, dose 8 mg/Kg, time 10 mins before challenge): 55% |
